Measurements reported in patent US9669003B2, “Use of flavone and flavanone derivatives in preparation of sedative and hypnotic drugs” (priority 2012, dated 2017).
Marks after values point to notes of the source that are not given here.

How the values were obtained:
Type in all cases: in vivo
[1] = test system: Kunming mice; test: Influence on autonomic activity of normal mice (ZIL-2 mice autonomic activity meter, counts within 10 min); conditions: intragastric, x ± s; for Times of activities in 1 h after drug administration/10 min: 1 h after administration; for Times of activities in 2 h after drug administration/10 min: 2 h after administration; for Times of activities in 24 h after drug administration/10 min: 24 h after administration
Outline: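 Activity counts during a 10-min window were taken at 1, 2 and 24 h after dosing in groups of 10 mixed-sex Kunming mice. Compounds were given in 0.5% CMC-Na at 25, 50 or 100 mg/kg. Statistics used Levene's homogeneity test, ANOVA and Dunnett's multiple comparisons.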

[2] = test system: Kunming mice; test: Influence on hypnosis effect with pentobarbital sodium doses at the threshold (50 mg/kg i.p.); conditions: pentobarbital sodium 50 mg/kg i.p. 60 min later, x ± s, n = 10
Outline: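 Pentobarbital sodium (0.3%, 50 mg/kg i.p.) injected 60 min after a single intragastric dose (25, 50, 100 mg/kg, 0.5% CMC-Na vehicle) in Kunming mice, 10 per group, sexes balanced. Onset and length of sleep (righting reflex lost over 1 min) analysed by ANOVA; sleeping incidence by χ2 test.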

[3] = test system: Kunming mice; test: Influence on hypnosis effect with pentobarbital sodium doses below the threshold (25 mg/kg i.p.); conditions: pentobarbital sodium 25 mg/kg i.p. 60 min later, sleep observed in 30 min, n = 10
Outline: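 Percentage of mice sleeping within 30 min after subthreshold pentobarbital sodium (25 mg/kg i.p.), defined by loss of righting reflex over 1 min, analysed by χ2. Compound in 0.5% CMC-Na given intragastrically at 25/50/100 mg/kg 60 min before; groups of 10 Kunming mice, both sexes.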

[4] = 25 mg/kg intragastric single dose
[5] = 50 mg/kg intragastric single dose
[6] = 100 mg/kg intragastric single dose
[7] = test drug 25 mg/kg intragastric single dose
[8] = test drug 50 mg/kg intragastric single dose
[9] = test drug 100 mg/kg intragastric single dose

Row | Structure (SMILES) | Times of activities in 1 h after drug administration/10 min ([1]; 25 mg/kg, n = 10) | Times of activities in 2 h after drug administration/10 min ([1]; 25 mg/kg, n = 10) | Times of activities in 24 h after drug administration/10 min ([1]; 25 mg/kg, n = 10) | Times of activities in 1 h after drug administration/10 min ([1]; 50 mg/kg, n = 10) | Times of activities in 2 h after drug administration/10 min ([1]; 50 mg/kg, n = 10) | Times of activities in 24 h after drug administration/10 min ([1]; 50 mg/kg, n = 10) | Times of activities in 1 h after drug administration/10 min ([1]; 100 mg/kg, n = 10) | Times of activities in 2 h after drug administration/10 min ([1]; 100 mg/kg, n = 10) | duration of sleep [2, 4] | time to sleep [2, 4] | duration of sleep [2, 5] | time to sleep [2, 5] | duration of sleep [2, 6] | time to sleep [2, 6] | Number of sleeping animals [3, 7] | rate of sleeping (%) [3, 7] | Number of sleeping animals [3, 8] | rate of sleeping (%) [3, 8] | Number of sleeping animals [3, 9] | rate of sleeping (%) [3, 9] | other results
1 | CCCc1ccc(C2CC(=O)c3c(O)cc([N+](=O)[O-])cc3O2)cc1OC (stereo not drawn) [Example 61] | 317.3 ± 50.1 /10 min | 289.4 ± 40.2 /10 min | 301.9 ± 77.5 /10 min | 295.1 ± 41.9 /10 min | 250.7 ± 42.8 /10 min | 300.2 ± 91.3 /10 min | 287.1 ± 45.9 /10 min | 221.5 ± 45.8 /10 min | 38.44 ± 15.12 min | 4.42 ± 1.43 min | 58.53 ± 27.42 min | 3.92 ± 1.31 min | 58.47 ± 24.40 min | 3.79 ± 1.44 min | 5 | 50** % | 6 | 60** % | 8 | 80*** % | Times of activities in 24 h after drug administration/10 min ([1]; 100 mg/kg, n = 10): 317.9 ± 80.3 /10 min
2 | COc1ccc(C2CC(=O)c3c(O)cccc3O2)cc1O (stereo not drawn) [Example 62] | 279.2 ± 45.4 /10 min | 264.9 ± 44.7 /10 min | 309.0 ± 81.9 /10 min | 237.4 ± 41.9 /10 min | 242.6 ± 49.2 /10 min | 297.2 ± 69.5 /10 min | 125.6 ± 32.8 /10 min | 170.3 ± 35.2 /10 min | 34.29 ± 22.83 min | 4.87 ± 1.96 min | 57.24 ± 17.30 min | 4.21 ± 1.72 min | 65.03 ± 32.12 min | 3.78 ± 1.90 min | 3 | 30% | 4 | 40* % | 6 | 60** % | Times of activities in 24 h after drug administration/10 min ([1]; 100 mg/kg, n = 10): 279.4 ± 86.3 /10 min
3 | Cc1cc(C2CC(=O)c3c(cccc3[N+](=O)[O-])O2)ccc1Oc1ccccc1 (stereo not drawn) [Example 63] | 250.6 ± 35.5 /10 min | 239.3 ± 34.6 /10 min | 269.5 ± 79.5 /10 min | 168.5 ± 53.0 /10 min | 151.3 ± 57.0 /10 min | 283.8 ± 79.3 /10 min | 124.5 ± 42.0 /10 min | 117.3 ± 54.8 /10 min | 47.87 ± 14.62 min | 3.43 ± 1.46 min | 62.64 ± 22.64 min | 3.09 ± 1.41 min | 87.42 ± 18.53 min | 2.33 ± 1.27 min | 6 | 60** % | 8 | 80*** % | 9 | 90*** % | Times of activities in 24 h after drug administration/10 min ([1]; 100 mg/kg, n = 10): 320.3 ± 76.0 /10 min
4 | COc1ccc(C2CC(=O)c3c(O)c(OC)c(OC)c(OC)c3O2)cc1OC (stereo not drawn) [Example 64, 5-hydroxyl-6,7,8,3′,4′-penta methoxyl-flavanone] |  |  |  |  |  |  |  |  | 24.78 ± 24.51 min | 5.87 ± 2.32 min | 48.23 ± 24.48 min | 4.32 ± 1.29 min | 53.43 ± 21.81 min | 3.87 ± 2.43 min | 4 | 40* % | 7 | 70** % | 8 | 80*** % | Times of activities in 1 h after drug administration/10 min ([1]; 25 mg/kg, n = 10, 25 mg/kg): 323.9 ± 45.4 /10 min; Times of activities in 2 h after drug administration/10 min ([1]; 25 mg/kg, n = 10, 25 mg/kg): 310.9 ± 55.9 /10 min; Times of activities in 24 h after drug administration/10 min ([1]; 25 mg/kg, n = 10, 25 mg/kg): 331.3 ± 94.5 /10 min; Times of activities in 1 h after drug administration/10 min ([1]; 50 mg/kg, n = 10, 50 mg/kg): 283.8 ± 60.4 /10 min; Times of activities in 2 h after drug administration/10 min ([1]; 50 mg/kg, n = 10, 50 mg/kg): 269.7 ± 44.6 /10 min; Times of activities in 24 h after drug administration/10 min ([1]; 50 mg/kg, n = 10, 50 mg/kg): 313.6 ± 93.1 /10 min; Times of activities in 1 h after drug administration/10 min ([1]; 100 mg/kg, n = 10, 100 mg/kg): 239.4 ± 35.6 /10 min; Times of activities in 2 h after drug administration/10 min ([1]; 100 mg/kg, n = 10, 100 mg/kg): 248.2 ± 44.7 /10 min; Times of activities in 24 h after drug administration/10 min ([1]; 100 mg/kg, n = 10, 100 mg/kg): 300.1 ± 81.3 /10 min
5 | COc1ccc(C2CC(=O)c3c(cc(OC)c(OC)c3OC)O2)cc1 (stereo not drawn) [Example 65, 5,6,7,4′-tetra methoxyl-flavanone] | 280.5 ± 47.4 /10 min | 279.4 ± 43.5 /10 min | 291.2 ± 83.6 /10 min | 174.3 ± 49.2 /10 min | 185.5 ± 56.6 /10 min | 289.0 ± 89.4 /10 min | 127.5 ± 36.5 /10 min | 132.6 ± 44.6 /10 min | 31.48 ± 22.67 min | 5.65 ± 1.83 min | 39.63 ± 20.19 min | 3.93 ± 1.39 min | 57.62 ± 24.57 min | 3.92 ± 1.40 min | 4 | 40* % | 6 | 60** % | 7 | 70** % | Times of activities in 24 h after drug administration/10 min ([1]; 100 mg/kg, n = 10): 280.7 ± 92.3 /10 min
